Measurements: patent publication US20170173134A1 (priority 2011, published 2017)
Read-outs that look alike come from different tables or passages of the source.

Columns and labels:
[1] = n = 10
[2] = test system: MNU-induced bladder cancer; type: in vivo, female Fischer 344 rats
[3] = in vivo; cited from earlier work
[4] = test system: MNU-induced urinary bladder carcinoma; assay: Second experiment (Table 5): histological assessment, MNU-induced bladder cancer; type: in vivo, rats
Procedure: The therapeutic effect in urinary bladder cancer in animals was assessed by histological evaluation of the tissues. The criteria for assessing normality of the tissues examined for all the experiments using the same animal model, that is, the experiments reported in Table 4, Table 5, Table 6-A, Table 6-B, Table 6-C and Table 6-D are: normal tissue, flat hyperplasia, papillary hyperplasia.
Flat hyperplasia and papillary hyperplasia are reactive changes of an inflammatory nature, though benign, and their occurrence in the experiments for assessment of new drugs in animals affected with cancer, indicates a reversal of the cancer process to non-cancerous stages.
Metaplasia is defined as the replacement of a normal functional tissue with another tissue with different structure, with loss of function, and, thus, is considered a form of premalignant lesion.
[…] animals (n=50) were used in the experiment. The therapeutic effect was assessed through histological assessment of tissues, and the toxicological effect of the compounds, through assessment of the presence or absence of urinary bleeding also called hematuria.
All the animals in the experiment were subjected to intravesical applications of 1.5 mg/kg of n-methyl-n-nitrosourea (MNU) dissolved in 0.30 mL of sodium citrate, using a catheter, for 7 weeks. One group (control) of 10 animals was given only saline solution ([…]), also intravesically and for an equal period.
The purpose of using n-methyl-n-nitrosourea (MNU) was to experimentally induce immunosuppression and subsequently producing urinary bladder carcinoma. After treatment with MNU, the animals were divided into 05 groups of 10 animals each.
After this procedure, all the 10 animals of each group were sacrificed and their urinary bladders were removed for collection of tissue fragments, which were embedded in paraffin and prepared for histological section, by the usual techniques.
For the histological examinations, sections (2 μm) of the tissue of the urinary bladder were cut using microtome Zeiss, mounted on microscope slides, and stained with hematoxylin-eosin (HE), for subsequent pathology assessment, quantification of cellular changes and comparison between control and treatment groups.

[5] = test system: MNU-induced cancerous lesions of the urinary bladder; type: in vivo, Fischer 344 rats
[6] = test system: bladder cancer; conditions: human, in vivo; cited from earlier work
[7] = 10 mg/kg intravesical, 14 weeks; n = 10
[8] = rat, in vivo
[9] = test system: MNU-induced urinary bladder carcinoma; set-up: species or system rats; conditions: rat, in vivo
[10] = test system: bladder cancer induced by MNU; set-up: species or system Fischer rats; conditions: rat, in vivo
[11] = Table 5 experiment, intravesical
[12] = MNU-induced bladder cancer, 10 mg/kg intravesical (topical application), 14 weeks, n = 10

With `CC(=O)O[C@@]12CO[C@@H]1C[C@H](O)[C@@]1(C)C(=O)[C@H](O)C3=C(C)[C@@H](OC(=O)[C@H](O)[C@@H](NC(=O)OC(C)(C)C)c4ccccc4)C[C@@](O)([C@@H](OC(=O)c4ccccc4)[C@H]21)C3(C)C` [Docetaxel] the “Toxicology: (Hematuria), number of animals positive” value [1] was “+10”, the “Flat hyperplasia, number of animals” value ([2]; rat, in vivo) was 1 and the “High-grade intraepithelial carcinoma (carcinoma in situ-Tis), number of animals” value ([2]; rat, in vivo) was 3. The “Low grade Intraepithelial neoplasia, number of animals” value ([2]; rat, in vivo) was 2, the “Normal, number of animals” value ([2]; rat, in vivo) was 1 and the “Papillary carcinoma (Ta), number of animals” value ([2]; rat, in vivo) was 1. The “Papillary hyperplasia, number of animals” value ([2]; rat, in vivo) was 1, the “Squamous metaplasia, number of animals” value ([2]; rat, in vivo) was 1 and the “success rate / responders” value ([2]; rat, in vivo) was 20%.

For `COc1cccc2c1C(=O)c1c(O)c3c(c(O)c1C2=O)C[C@@](O)(C(=O)CO)C[C@@H]3O[C@H]1C[C@H](N)[C@H](O)[C@H](C)O1` [Doxorubicin], the “Allergic reaction, (%) patients affected” value [3] is given as 1% and the “Chemical cystitis, (%) patients affected” value [3] is given as 25%.

For `Nc1ccn([C@@H]2O[C@H](CO)[C@@H](O)C2(F)F)c(=O)n1` [Gemcitabine], the “Toxicology: (Hematuria), number of animals in which absent” value [1] was “in 06”, the “Toxicology: (Hematuria), number of animals positive” value [1] was “+in 04” and the “Flat hyperplasia, number of animals” value ([2]; n = 10) was 2. For the same molecule, the “High-grade intraepithelial carcinoma (carcinoma in situ-Tis), number of animals” value ([2]; n = 10) was 4, the “Low grade Intraepithelial neoplasia, number of animals” value ([2]; n = 10) was 2 and the “Papillary hyperplasia, number of animals” value ([2]; n = 10) was 2. The “success rate / responders” value ([2]; rat, in vivo) was 40%.

For `CO[C@@]12[C@H](COC(N)=O)C3=C(C(=O)C(C)=C(N)C3=O)N1C[C@@H]1N[C@@H]12` [Mitomycin C], the “animals that had cancer after treatment” value [4, 11] is listed as 50%, the “Bladder contraction, (%) patients affected” value [3] is listed as under 2% and the “Hematuria, (%) patients affected” value [3] is listed as 10%. The “Myelosuppression, (%) patients affected” value [3] was under 10%, the “Flat hyperplasia, animals” value ([5]; n = 10) was 1(10%) and the “High-grade intraepithelial carcinoma (carcinoma in situ-Tis), animals” value ([5]; n = 10) was 3(30%). The “Low-grade intraepithelial carcinoma, animals” value ([5]; n = 10) was 6(60%), the “Normal, animals” value ([5]; n = 10) was 0% and the “patients with no recurrence of cancer during the follow-up period” value [6] was 19%. For the same molecule, the “recurrence rate after 5 years” value [6] was 64%.

For `S=P(N1CC1)(N1CC1)N1CC1` [Thiotepa], the “Chemical cystitis, (%) patients affected” value [3] is listed as 20% and the “Myelosuppression, (%) patients affected” value [3] is listed as 10%.

With `CCCCC(=O)OCC(=O)[C@]1(O)Cc2c(O)c3c(c(O)c2[C@@H](O[C@H]2C[C@H](NC(=O)C(F)(F)F)[C@H](O)[C@H](C)O2)C1)C(=O)c1c(OC)cccc1C3=O` [Valrubicin, N-trifluoroacetyladriamycin-14-valerate] the “Toxicology: (Hematuria)” value [7] was “Positive”, the “Toxicology: (Hematuria), % of animals” value [7] was “(100%)” and the “High grade intraepithelial neoplasia (carcinoma in situ-Tis), animals” value [4, 12] was 2 (20%) n (%). The “Low grade intraepithelial neoplasia, animals” value [4, 12] was 5 (50%) n (%), the “Normal, animals” value [4, 12] was 1 (10%) n (%) and the “Papillary carcinoma (Ta), animals” value [4, 12] was 1 (10%) n (%). The “Squamous metaplasia, animals” value [4, 12] was 1 (10%) n (%), the “therapeutic effectiveness / efficacy” value [4, 11] was 10% and the “Toxicology: Presence of hematuria, number of animals” value (Fischer 344, rat, in vivo) was “N = 10”. The “Toxicology: Presence of hematuria” value (n = 10) was “Positive”, the “Toxicology: Presence of hematuria, % of animals” value (n = 10) was 100% and the “Flat hyperplasia, animals” value ([5]; n = 10) was 1(10%). The “High-grade intraepithelial carcinoma (carcinoma in situ-Tis), animals” value ([5]; n = 10) was 2(20%), the “Low-grade intraepithelial carcinoma, animals” value ([5]; n = 10) was 4(40%) and the “Papillary carcinoma (Ta), animals” value ([5]; n = 10) was 1(10%). For the same molecule, the “Papillary hyperplasia, animals” value ([5]; n = 10) was 1(10%), the “Squamous metaplasia, animals” value ([5]; n = 10) was 1(10%) and the “patients treated in whom results are seen” value [6] was 20%.

With Bacillus Calmette-Guérin [BCG] the “Toxicology: Presence of hematuria” value (rat, in vivo) was “Positive”, the “Toxicology: Presence of hematuria, % of animals” value (rat, in vivo) was “(100%)” and the “Toxicology: Presence of hematuria, number of animals” value (rat, in vivo) was “n = 10”. For the same molecule, the “Toxicology: (Hematuria)” value [8] was “Positive”, the “Toxicology: (Hematuria), % of animals” value [8] was “(100%)” and the “degree of hematuria moderate, % of animals” value [8] was 80%. The “degree of hematuria severe, % of animals” value [8] was 20%, the “patients affected by local toxicity (cystitis, macroscopic haematuria)” value [3] was “up to 75%” and the “patients with unwanted side effects (irritation, haematuria, dysuria)” value [3] was “around 90%”. The “withdrawal from treatment because of local toxicity” value [3] was “around 15%”, the “Flat hyperplasia, animals” value ([5]; rat, in vivo) was 2(20%) and the “High-grade intraepithelial carcinoma (carcinoma in situ-Tis), animals” value ([5]; rat, in vivo) was 2(20%). The “Low-grade intraepithelial carcinoma, animals” value ([5]; rat, in vivo) was 3(30%), the “Normal, animals” value ([5]; rat, in vivo) was 0% and the “Papillary hyperplasia, animals” value ([5]; rat, in vivo) was 2(20%). For the same molecule, the “Squamous metaplasia, animals” value ([5]; rat, in vivo) was 1(10%), the “animals with positive result / positive outcome (histopathology)” value [9] was 40% and the “Flat hyperplasia, number of animals” value [10] was 1. The “High-grade Intraurothelial Neoplasia - Carcinoma in situ (pTis), number of animals” value [10] was 1, the “Low-grade Intraurothelial Neoplasia, number of animals” value [10] was 1 and the “Normal, number of animals” value [10] was 1. For the same molecule, the “Papillary Carcinoma (pTa), number of animals” value [10] was 2, the “Papillary hyperplasia, number of animals” value [10] was 3 and the “Urothelial carcinoma with lamina propria invasion (pT1), number of animals” value [10] was 2. The “recurrent or refractory / malignant lesions” value [10] was 83%, the “recurrent or refractory lesions” value [10] was 17% and the responders [10] was 83%. The “responders (absence of malignant lesions)” value [10] was 17%, the “Flat hyperplasia, number of animals” value ([2]; rat, in vivo) was 2 and the “High-grade intraepithelial carcinoma (carcinoma in situ-Tis), number of animals” value ([2]; rat, in vivo) was 3. For the same molecule, the “Low grade Intraepithelial neoplasia, number of animals” value ([2]; rat, in vivo) was 2, the “Normal, number of animals” value ([2]; rat, in vivo) was 0 and the “Papillary carcinoma (Ta), number of animals” value ([2]; rat, in vivo) was 1. For the same molecule, the “Papillary hyperplasia, number of animals” value ([2]; rat, in vivo) was 2, the “animals with recurrent/refractory malignant lesions” value ([2]; rat, in vivo) was 06 and the “success rate / responders” value ([2]; rat, in vivo) was 40%. For the same molecule, the “patients with no recurrence of cancer during the follow-up period” value [6] was 39%, the “rate of recurrence after 5 years (SWOG 8507)” value [6] was 60% and the “recurrence rate after 5 years” value [6] was 34%. The “relapse among patients who respond well in the early days” value [6] was 30%.
